In PMC12615518, “Discovery of CRBN-recruiting PROTAC degraders of the METTL3-METTL14 complex” (Medicinal Chemistry Research, 2025):
“Also recorded” adds a separate entry of the source.

What was measured:
METTL14 = target: T1, METTL14 (Homo sapiens, UniProt Q9HCE5); assay: Immunoblotting (Western blot) degradation of METTL14 in MV4-11 cells; type: cell-based
T1 construct: Following treatment, total cellular proteins were extracted using RIPA buffer; endogenous in cells; host or cells: MV4-11 (MV4.11) human AML cells, ATCC
T1 sequence (Q9HCE5 whole entry): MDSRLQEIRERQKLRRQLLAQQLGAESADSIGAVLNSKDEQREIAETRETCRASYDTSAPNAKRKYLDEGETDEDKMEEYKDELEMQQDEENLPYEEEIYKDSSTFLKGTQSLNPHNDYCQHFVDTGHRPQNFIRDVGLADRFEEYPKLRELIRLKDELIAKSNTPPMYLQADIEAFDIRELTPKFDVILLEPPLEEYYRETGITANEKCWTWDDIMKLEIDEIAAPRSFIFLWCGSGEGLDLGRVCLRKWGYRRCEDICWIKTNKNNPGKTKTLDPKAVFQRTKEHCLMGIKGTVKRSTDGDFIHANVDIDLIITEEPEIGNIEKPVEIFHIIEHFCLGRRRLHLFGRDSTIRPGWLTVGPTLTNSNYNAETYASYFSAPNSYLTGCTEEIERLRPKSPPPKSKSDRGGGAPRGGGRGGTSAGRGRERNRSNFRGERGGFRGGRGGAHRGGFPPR
T1 sequence (Q86U44 2-580 partner): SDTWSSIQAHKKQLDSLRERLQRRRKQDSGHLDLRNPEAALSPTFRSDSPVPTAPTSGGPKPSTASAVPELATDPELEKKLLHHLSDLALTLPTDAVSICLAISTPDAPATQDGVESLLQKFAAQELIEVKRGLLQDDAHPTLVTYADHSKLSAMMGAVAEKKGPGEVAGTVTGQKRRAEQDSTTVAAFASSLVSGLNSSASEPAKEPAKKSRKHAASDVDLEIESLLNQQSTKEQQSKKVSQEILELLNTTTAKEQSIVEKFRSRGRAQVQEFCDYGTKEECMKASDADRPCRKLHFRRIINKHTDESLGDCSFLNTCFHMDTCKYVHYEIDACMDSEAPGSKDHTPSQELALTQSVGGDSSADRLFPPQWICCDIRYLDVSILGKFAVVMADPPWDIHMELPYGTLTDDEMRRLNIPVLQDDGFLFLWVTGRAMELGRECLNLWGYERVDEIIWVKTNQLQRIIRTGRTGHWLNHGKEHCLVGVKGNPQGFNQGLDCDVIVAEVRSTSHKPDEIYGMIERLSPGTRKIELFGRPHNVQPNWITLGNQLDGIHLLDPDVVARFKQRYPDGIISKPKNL
Description: All cell lines were maintained under standard conditions in a humidified atmosphere at 37 °C with 5% CO₂.
Western Blot Analysis: Following treatment, total cellular proteins were extracted using RIPA buffer (Auragene, Changsha, China). […] After washing, membranes were incubated with horseradish peroxidase (HRP)-conjugated secondary antibodies (anti-rabbit or anti-mouse IgG; 1:5000) for 2 hours at room temperature. Protein bands were visualized using an enhanced chemiluminescence (ECL) detection kit (Amersham Pharmacia), following the manufacturer's protocol. Band intensities were quantified using ImageJ software and normalized to ACTIN as a loading control. Data was analyzed using GraphPad Prism 9.

METTL3-METTL14 complex = target: T2, METTL3-METTL14 complex (Homo sapiens, UniProt Q86U44); assay: Washout experiment in MV4-11 cells, Western blot; type: cell-based; settings: 1 µM for 20 h, then drug withdrawal 0 to 24 h
T2 construct: endogenous in cells; host or cells: MV4-11 human AML cells, ATCC
T2 sequence (Q86U44 2-580 limits assumed): as the sequence (Q86U44 2-580 partner) above
T2 sequence (Q9HCE5 whole entry partner): as the sequence (Q9HCE5 whole entry) above
Description: To further characterize this compound, MV4-11 AML cells were treated with ZW30441 across a range of concentrations for 24 h.
Fig. 3 ZW30441 induced degradation of METTL3 and METTL14 in a dose- and time-dependent manner. […] METTL3 and METTL14 protein levels were normalized against ACTIN and plotted for DC50 and Dmax determination (right). B The levels of METTL3 and METTL14 protein in MV4-11 cells were analyzed by Western blots after the treatment of 1 µM of ZW30441 for various durations. C METTL3 and METTL14 protein levels were analyzed by Western blots in MV4-11 cells after treatment with 1 µM of ZW30441 for 20 h followed by drug withdrawal and cultured without ZW30441 for 0 to 24 h, as indicated TEXT PRINTED IN THE PICTURE: (A) ZW30441: METTL3 levels: DC50=0.44 uM; METTL3 levels: Dmax= 68.7%; METTL14 levels: DC50=0.13 uM; METTL14 levels: Dmax= 74.1% DOUBTS OF THE COPYIST ABOUT THIS PICTURE: ZW30441, panel A, axis title of the right plot: last letter unclear, 'METTL14 levels' or 'METTL14 levela'
Western Blot Analysis: Following treatment, total cellular proteins were extracted using RIPA buffer (Auragene, Changsha, China). Equal amounts of protein were separated by 12% SDS-PAGE and transferred onto PVDF membranes (Thermo Fisher, USA, LC2002). […] Band intensities were quantified using ImageJ software and normalized to ACTIN as a loading control. Data was analyzed using GraphPad Prism 9. […]

MOLM13 cells = assay: Cell proliferation assay in MOLM13 cells; type: cell-based, human; settings: MOLM-13 cells, 5 µM, 4-day period
Description: We proceeded to evaluate the cytotoxic activities of ZW30441 in AML cell lines by treating MOLM13 and MV4-11 cells with ZW30441 in increasing doses for 72 h.
Cell Proliferation Assay: To assess cell growth, 1×10⁵ cells were seeded per well in 24-well plates in triplicate and treated with 5 µM concentrations of the test compounds. The culture medium containing the compounds was refreshed every 48 hours, and cell densities were maintained below 1×10⁶ cells/mL through periodic dilution. Cell numbers were measured every other day over a 4-day period using a DS-11 automated cell counter (DeNovix, USA).

METTL3 = METTL3 (Homo sapiens, UniProt Q86U44); assay: Mechanism study: METTL3 Western blot in HEK293T cells after pretreatment with proteasome inhibitors or CRBN ligand; type: cell-based; set-up: endogenous in cells; settings: then ZW30441 2.5 µM for 24 h
Sequence of METTL3 (Q86U44 2-580 limits assumed): as the sequence (Q86U44 2-580 partner) above
Sequence of METTL3 (Q9HCE5 whole entry partner): as the sequence (Q9HCE5 whole entry) above
Description: We next explored the mechanisms of ZW30441-induced METTL3-METTL14 degradation. HEK293T cells were pretreated with the proteasome inhibitors bortezomib (0.1 µM) or MG132 (1 µM) for 2 h before ZW30441 (2.5 µM) administration (Fig. 4A).
Fig. 4 ZW30441 induced METTL3-METTL14 complex degradation through the ubiquitin-proteasome system and affected the survival of human AML cell lines. A Western blot analysis of METTL3 expression in HEK293T cells after pretreatment with the CRBN ligand pomalidomide (10 µM) or the proteasome inhibitors bortezamib (0.1 µM) or MG132 (1 µM) for 2 h, followed by treatment with ZW30441 (2.5 µM) for 24 h (left). Western blot analysis of METTL3 and METTL14 levels in MV4-11 cells after treatment with UHZ2, ZW30441, and the negative control ZW30441NC at the indicated concentration for 24 h (right). B Cell viability study of ZW30441 in MOLM13 and MV4-11 cell lines (left). […]
Western Blot Analysis: Following treatment, total cellular proteins were extracted using RIPA buffer (Auragene, Changsha, China). […] Band intensities were quantified using ImageJ software and normalized to ACTIN as a loading control. Data was analyzed using GraphPad Prism 9. Degradation efficiency was evaluated by calculating DC₅₀, the drug concentration required to reduce target protein levels by 50%, and Dₘₐₓ, the maximum level of degradation observed across all tested concentrations.

Dmax (METTL14; MV4-11, MV4-11 cells, 24 h): 65%
% reduction in MV4-11 cells, 0.3 µM, METTL14 (METTL14; MV4-11 cells, 0.3 µM, 24 h, immunoblotting, nd = no degradation): 56%
% reduction in MV4-11 cells, 1.0 µM, METTL14 (METTL14; MV4-11 cells, 1.0 µM, 24 h, immunoblotting, nd = no degradation): 77%
DC50 (METTL14; MV4-11 cells, 24 h, Western blot normalized against ACTIN): 130 nM
time of maximum degradation of METTL14 (METTL14; MV4-11 cells, time course at 1 µM): 20 h
duration of degradation after removal of compound (washout) (METTL3-METTL14 complex): around 24 h
SMILES: CC1(C)CCN(Cc2cc(F)c(N3CC(=O)NC4(CCN(c5cc(NCCCCCCCCCC(=O)N6CCN(c7ccc8c(c7)CN(C7CCC(=O)NC7=O)C8=O)CC6)ncn5)CC4)C3)cc2F)CC1 (stereo not drawn) [Compound 4j, 3-(5-(4-(10-((6-(4-(4-((4,4-dimethylpiperidin-1-yl)methyl)-2,5-difluorophenyl)-2-oxo-1,4,9-triazaspiro[5.5]undecan-9-yl)pyrimidin-4-yl)amino)decanoyl)piperazin-1-yl)-1-oxoisoindolin-2-yl)piperidine-2,6-dione]
cell growth inhibition compared to STM2457 and UZH2 (MOLM13 cells): comparable cell growth inhibition
METTL3 degradation after pretreatment with proteasome inhibitors (METTL3; bortezomib (0.1 µM) or MG132 (1 µM) for 2 h): effectively blocked; also recorded: abrogated
METTL3 degradation after pretreatment with CRBN ligand pomalidomide (METTL3; pomalidomide 10 µM for 2 h): significantly reduced; also recorded: abrogated
